This note sets out measurements from patent US7566732B2, “Rhodanine compositions for use as antiviral agents” (priority 2003, dated 2009).

The test has as its target EVp28 (Gst-Evp28) ubiquitin ligase (Ectromelia virus, UniProt Q85318). Briefly: biochemical.

The term IC50 denotes the point on the concentration scale where inhibition reaches its midpoint. High values mean weaker potency, low ones greater potency. For `O=C1/C(=C\c2ccc(-c3cccc(C(F)(F)F)c3)o2)SC(=S)N1Cc1ccccc1` [Compound 54, (5E)-3-benzyl-2-thioxo-5-({5-[3-(trifluoromethyl)phenyl]-2-furyl}methylene)-1,3-thiazolidin-4-one], the IC50 came to 16 nM.
As for `O=C1/C(=C\c2nc3ccccc3[nH]2)SC(=S)N1c1ccc(F)cc1` [Compound 307], the IC50 was determined as 92 nM.
